What all share (type): cell-based, Staphylococcus aureus
The subject of experiment [1] is biofilms of S. aureus strain ATCC-6538. As to the kind of experiment: Preformed biofilms on HA discs, S. aureus. Particulars: HA as substrate. How it is done: Antimicrobial susceptibility testing of BP-ciprofloxacin against preformed biofilms of S. aureus strain ATCC-6538 and P. aeruginosa strain ATCC-15442: Strains cultured on appropriate agar plates (Columbia agar plate for S. aureus; MacConkey agar plate for P. aeruginosa) were transferred to liquid microbiological media and incubated for 24 h/37° C. under aerobic conditions. After incubation, strains were diluted to the density of 1 MF. The microbial dilutions were introduced to wells of 24-well plates containing HA discs as a substrate, or simply to polystyrene wells where the bottom surface of the wells served as the substrate for biofilm development. Strains were incubated at 37° C. for 4 hrs. Next, the microbe-containing solutions were removed from the wells. The surfaces, HA discs and polystyrene plates, were gently rinsed to leave adhered cells and to remove planktonic or loosely-bound microbes. Surfaces prepared in this manner were immersed in fresh TSB medium containing 0.24-125 mg/L of BP-ciprofloxacin conjugate. After 24 hrs of incubation at 37° C. the surfaces were rinsed using physiological saline solution and transferred to 1 mL of 0.5% saponin (Sigma-Aldrich, St Louis, MO). The surfaces were vortex-mixed vigorously for 1 minute to detach cells. Subsequently, all microbial suspensions were diluted 10 to 10^9 times. Each dilution ([…]) was cultured on the appropriate stable medium (MacConkey, Columbia for P. aeruginosa and S. aureus, respectively) and incubated at 37-C for 24 hours. After this time, the microbial colonies were counted and the number of cells forming biofilm was assessed. Results were presented as the mean number of CFU per square millimeter surface±standard error of the mean. To estimate the exact surface area of HA discs, x-ray tomographic analysis was applied. For estimation of the area of test plate bottoms, the equation for circle area: πr2 was applied.
Antimicrobial susceptibility testing of 6 against preformed biofilms of S. aureus strain ATCC-6538 and P. aeruginosa strain ATCC-15442: Strains cultured on appropriate agar plates (Columbia agar plate for S. aureus; MacConkey agar plate for P. aeruginosa) were transferred to liquid microbiological media and incubated for 24 hrs/37° C. under aerobic conditions. After incubation, strains were diluted to the density of 1 MF. The microbial dilutions were introduced to wells of 24-well plates containing HA discs as a substrate, or simply to polystyrene wells where the bottom surface of the wells served as the substrate for biofilm development. Strains were incubated at 37° C. for 4 hrs. Next, the microbe-containing solutions were removed from the wells. The surfaces, HA discs and polystyrene plates, were gently rinsed to leave adhered cells and to remove planktonic or loosely-bound microbes. […] After 24 hrs of incubation at 37° C. the surfaces were rinsed using physiological saline solution and transferred to 1 mL of 0.5% saponin (Sigma-Aldrich, St Louis, MO). The surfaces were vortex-mixed vigorously for 1 minute to detach cells. Subsequently, all microbial suspensions were diluted 10-1 to 10-9 times. Each dilution ([…]) was cultured on the appropriate stable medium (MacConkey, Columbia for P. aeruginosa and S. aureus, respectively) and incubated at 37° C. for 24 hrs. After this time, the microbial colonies were counted and the number of cells forming biofilm was assessed. Results were presented as the mean number of CFU per square millimeter surface±standard error of the mean. To calculate the surface area of HA discs, x-ray tomographic analysis was applied. For estimation of the area of test plate bottoms, the equation for circle area: πr^2 was applied.

Experiment [2] relates to planktonic S. aureus clinical osteomyelitis strains (MSSA and MRSA). Description: MIC by microdilution against planktonic clinical S. aureus strains. Particulars: for antimicrobial activity / MIC against planktonic S. aureus (in words): microdilution, 24 h. The method, then:
(§1) Subsequently, the plate was incubated for 24 h/37° C. in a shaker to obtain optimal conditions for microbial growth and to prevent bacteria from forming biofilms. After incubation, the absorbance was measured once again. The following control samples were established: negative control sample one: sterile medium without microbes; negative control sample two: sterile medium without microbes implemented with DMSO (dimethyl sulfoxide, Sigma-Aldritch) to final concentration of 1% (v/v); positive control sample one: medium+microbes with no compound tested; positive control sample two: medium+microbes with no compound tested but implemented with DMSO to final concentration of 1% (v/v). […] To assess relative number of cells, the following calculations were performed. […] Next, the relative number of cells subjected to incubation with tested compounds were counted as follows: […].
as §1, with “Evaluation of the MIC of tested compounds against planktonic forms of clinical staphylococcal strains analyzed: To assess the impact of parent antibiotic and conjugates on microbial growth, 100 μl of microbial solutions of density 1×10^5 CFU/ml were placed into wells of 96-well test plates together with appropriate concentrations of tested compounds. […] Subsequently,” for “Subsequently,”, “plates were” for “the plate was”, “hrs/37°” for “h/37°”, “Sigma-Aldrich)” for “Sigma-Aldritch)”
The occurrence of opacification or lack of opacification of media was proof of pathogen growth or lack of growth, respectively. Additionally, bacterial solutions were cultured on the appropriate stable medium. Growth or lack of growth of bacterial colonies together with above-mentioned results from liquid cultures served as confirmation of results obtained spectrophotometrically.

Another experiment deals with S. aureus 6538. As to the kind of experiment: Preventative assay, HA spherules pretreated then inoculated with S. aureus. The method, then: Preventative ability of BP-ciprofloxacin conjugate to inhibit S. aureus 6538 adherence to HA spherules: Various BP-ciprofloxacin concentrations were introduced to HA powder (spherules) suspended in TSB microbiological medium. Solutions containing conjugate and HA spherules were introduced to wells of 24-well plates. Final concentrations of powder were 10 mg/1 mL, while final concentrations of the conjugate were 0.12-250 mg/L. Suspensions were left for 24 h/37° C./shaking. After 24 h, suspensions were removed from the wells and impulse-centrifuged to precipitate HA powder. Next, supernatant was very gently discarded and a fresh 1 mL of S. aureus of density 10^5 cfu/mL was introduced to the HA spherules. Subsequently, this solution was shaken, absorbance was measured using 580 nm wavelength and left for 24 h/37° C./shaking. After incubation absorbance was measured again and values from 0 hr and 24 hrs were compared to assess reduction of bacterial growth with regard to control sample one (bacterial suspension but no spherules) and control sample two (bacterial suspension+spherules but with no conjugate added). Additionally, solutions were impulse-centrifuged, supernatant was gently discarded, while bacteria-containing HA spherules were culture plated as before and quantitatively assessed. […]

For experiment [3], the system named is S. aureus ATCC6538 biofilms. Description: Survival of S. aureus biofilm on pretreated, rinsed HA discs. Particulars: pretreated HA discs. The method, then:
HA discs incubated in DMSO or phosphate buffer served as control samples. Next, discs were rinsed 3 times with sterile water. After rinsing, 2 mL of 0.5 MF of. S. aureus ATCC6538 were introduced to wells containing HA discs as a substrate for biofilm development and biofilms were formed as before.

“Also recorded” adds a separate entry of the source.

Take `O=C(O)c1cn(C2CC2)c2cc(N3CCN(C(=O)c4ccc(CC(P(=O)(O)O)P(=O)(O)O)cc4)CC3)c(F)cc2c1=O` [Compound 11, 1-cyclopropyl-7-(4-(4-(2,2-diphosphonoethyl)benzoyl)piperazin-1-yl)-6-fluoro-4-oxo-1,4-dihydroquinoline-3-carboxylic acid]: the “bactericidal activity / reduction of CFUs against established biofilm (in words)” value in experiment [1] is “insignificant; also recorded: No significant activity is observed at any concentration”. For the same compound, the “concentration of 11 relative to 6 to achieve the same antibacterial effect” value in experiment [2] (MIC assay, S. aureus strains) is recorded as 2-64 ×. For the same compound, the entries for the “antimicrobial activity / MIC against planktonic S. aureus (in words)” value in experiment [2] and in experiment [2] (listed as BAC) were “weaker activity” and “very little effect on bacterial growth under any circumstances; also recorded: has lost most of the activity”, respectively. Also, the “preventative antimicrobial activity on pretreated HA (in words)” value with S. aureus 6538 is “insignificant; also recorded: not detectable; also recorded: no antimicrobial activity is observed”. The “ability to prevent biofilm formation on pretreated HA (in words)” value in experiment [3] is “no significant antimicrobial activity”; in experiment [3] (listed as BAC), “did not inhibit the growth of biofilms on bone substitute even at very high concentrations”.

The values are drawn from patent US12624057B2, “Bisphosphonate quinolone conjugates and uses thereof” (BIOVINC, LLC, priority 2016, dated 2026).
